Data: paper PMC12750222, “Cytosporone B Affects ATP Production of Trypanosoma cruzi: A Lethal Action Investigation” (ACS Omega, 2025)
“Also recorded” adds a separate entry of the source. Where two headings read alike, the source gives them in different places.

Tests used:
[1] = test system: fibroblast cells (NCTC clone 929); test: Cytotoxic assay (MTT); type: cell-based, Murine; conditions: NCTC clone 929 cells, 48 h, highest tested concentration 200 μM
Experimental: (§1) Murine conjunctive cells (NCTC clone 929, ATCC) and rhesus monkey kidney cells (LLC-MK2, ATCC CCL 7) were maintained in RPMI-1640 supplemented with 10% fetal bovine serum (FBS) at 37 °C in 5% CO2 humidified incubator. Peritoneal macrophages were collected by washing the peritoneal cavity of BALB/c mice with RPMI-1640 medium (Sigma-Aldrich) supplemented with 10% FBS, and were maintained at 37 °C in a 5% CO2 humidified incubator. T. cruzi trypomastigotes (Y strain) were cultivated by continuous in vitro passage in LLC-MK2, in RPMI-1640 supplemented with 2% FBS at 37 °C in 5% CO2 humidified incubator. Antitrypomastigote activity was evaluated in vitro using trypomastigotes obtained from infected LLC-MK2 cell cultures. The motile trypomastigotes, spontaneously released into the supernatant, were collected by centrifugation (2100g for 10 min), washed three times with cold PBS to remove cell debris and culture medium, and finally resuspended in fresh RPMI-1640 medium.
(§2) Cytotoxicity was evaluated in vitro using fibroblast cells (NCTC clone 929) seeded in a 96-well plate (6 × 10^4/well). The compounds were diluted in DMSO (30 mM) and diluted in RPMI-1640 medium without phenol red compounds using serial dilution from 1.56 to–200 μM. The compounds were incubated with the cells for 48 h at 37 °C in 5% CO2 humidified incubator. The MTT assay was used for viability determination. After the final incubation period, 20 μL of MTT (5 mg/mL) was added for 4 h and the plate was kept at 37 °C in 5% CO2 humidified incubator. To solubilize the formazan, 80 μL of SDS (10% v/v) was added and the microplate was incubated for 24 h at 25 °C. The microplate was read at 570 nm in a plate spectrophotometer (Varioskan, Thermo, USA).

[2] = test system: Escherichia coli; set-up: method as in literature; conditions: ref literature; cited from earlier work
[3] = test system: plants; set-up: method as in literature; conditions: ref literature; cited from earlier work
[4] = test system: Enterococcus faecalis; set-up: method as in literature; conditions: ref literature; cited from earlier work
[5] = test system: T. cruzi intracellular amastigotes; test: Antiamastigote assay in infected peritoneal macrophages (Giemsa, infection index); type: cell-based, Trypanosoma cruzi; conditions: for IC50: intracellular amastigotes in BALB/c peritoneal macrophages, 48 h, tested up to 60 μM, NA = no activity, read-out: IC50 (μM) ± SD Amastigote; for SI (selectivity index): ratio between CC50 in NCTC cells and IC50 in intracellular amastigotes
Experimental: as §1
Macrophages were seeded in 16-well chamber slides (NUNC Thermo Fisher Scientific, USA) and after 24 h infected with trypomastigotes (1:5, host cell/parasite ratio) for 2 h. Subsequently, infected cells were incubated with increasing concentrations of the compounds (up to 60 μM) for 48 h at 37 °C in 5% CO2 humidified incubator. After treatment, the cells were fixed and stained with Giemsa, and the slides were analyzed under a digital light microscope (EVOS M500, Thermo Fisher Scientific, USA). The infection index was determined by counting 200 macrophages and calculating the percentage of infected cells multiplied by the average number of amastigotes per infected macrophage. Benznidazole was used as a standard reference drug.

[6] = test system: Staphylococcus aureus; set-up: method as in literature; conditions: ref literature; cited from earlier work
[7] = test system: Candida albicans; set-up: method as in literature; conditions: ref literature; cited from earlier work
[8] = test system: human lung fibroblast MRC-5 cells; set-up: method as in PMID 29660469; conditions: cited from earlier work
[9] = test system: T. cruzi trypomastigotes (Y strain); test: Antitrypomastigote assay (resazurin); type: cell-based, Trypanosoma cruzi; conditions: 24 h + 24 h resazurin, tested up to 150 μM, NA = no activity, read-out: IC50 (μM) ± SD Trypomastigote
Experimental: as §1
Antitrypomastigote activity was evaluated in vitro using trypomastigotes obtained from infected LLC-MK2 cell cultures. Briefly, […] (1 × 10^6 cells/well) were incubated with increasing concentrations of the test compounds (up to 150 μM) in RPMI-1640 medium supplemented with 10% fetal bovine serum, at 37 °C in a humidified atmosphere containing 5% CO2 for 24 h. After incubation, resazurin sodium salt (final concentration 44 μM) was added to each well, and the plates were further incubated for an additional 24 h under the same conditions. Resazurin is a redox-sensitive dye that is reduced by metabolically active parasites to the fluorescent compound resorufin, allowing the quantification of viable parasites.
The conversion of resazurin to resorufin was measured spectrophotometrically by reading the absorbance at 570 nm. The percentage of parasite viability was calculated relative to untreated controls. Benznidazole was used as a standard drug, and wells containing only medium served as negative controls.

[10] = test system: T. cruzi trypomastigotes; test: Mitochondrial membrane electric potential (JC-1, flow cytometry); type: cell-based, Trypanosoma cruzi; conditions: 55 μM, 1 and 2 h, JC-1, ratio BL2/BL1
Experimental: Mitochondrial membrane potential (ΔΨm) was evaluated using the JC-1 fluorescent probe, which accumulates in mitochondria in a potential-dependent manner, forming red-fluorescent aggregates in healthy cells with high ΔΨm and remaining as green-fluorescent monomers in cells with depolarized mitochondrial membranes. Trypomastigotes (2 × 10^6/well) were incubated with Csn-B (6) (55 μM) for 1 and 2 h, at 37 °C in HBSS + Glu. Carbonyl cyanide m-chlorophenyl hydrazone (CCCP) 100 μM was used as a positive control. After this period, parasites were washed in HBSS + Glu and resuspended with JC-1 dye (10 μM) in the dark for 10 min at 37 °C. Parasites were analyzed by flow cytometry (Attune NxT Flow Cytometer; Thermo Fisher Scientific, USA). ,
(§3) 3 Evaluation of mitochondrial membrane electric potential (ΔΨm) and ATP levels. T. cruzi trypomastigotes were incubated for 1 or 2 h with Cytosporone B (6) (55 μM). (A) ΔΨm was investigated with JC-1 dye by flow cytometry and reported as the ratio between the emission channels BL2/BL1. (B) ATP concentration was measured by luciferin/luciferase luminescent kit in a plate reader luminometer. In both analyses, untreated and treated […] with CCCP were used to achieve minimal and maximal depolarization, respectively. A representative experiment is shown. ***p < 0.005 and **p < 0.05.

[11] = test system: bacteria; set-up: method as in literature; conditions: ref literature; cited from earlier work
[12] = Cytotoxic assay (MTT); type: cell-based, Murine; conditions: mouse, NCTC clone 929 fibroblast cells, NCTC clone 929 cells, highest tested concentration 200 μM
Experimental: as §1, §2

[13] = test system: Nur77; set-up: method as in PMID 18690216; conditions: cited from earlier work
[14] = test system: T. cruzi trypomastigotes; test: ATP levels (luciferin/luciferase); type: cell-based, Trypanosoma cruzi; conditions: 55 μM, 1 and 2 h
Experimental: Intracellular ATP levels were measured using the ATP Determination Kit (Molecular Probes, Thermo Fisher Scientific, USA), based on the luciferin–luciferase bioluminescence reaction, in which the emitted light intensity is directly proportional to the ATP concentration present in the sample. Trypomastigotes (2 × 10^6/well) were treated with Csn-B (6) (55 μM) for 1 and 2 h. Carbonyl cyanide m-chlorophenyl hydrazone (CCCP) 100 μM was used as a positive control. After treatment, trypomastigotes were lysed using HBSS + Glu with 0.5% Triton X-100 and mixed with a standard reaction buffer (ATP Determination kit, Molecular Probes, USA) containing DTT (1 mM), luciferin (0.5 mM), and firefly luciferase (1.25 μg/mL). ,
as §3

[15] = test system: T. cruzi; set-up: method as in literature; conditions: T. cruzi treated with benznidazole; ref literature; cited from earlier work
[16] = Trypanosoma cruzi, Peritoneal macrophage, in Mus musculus

Molecule: COC(=O)Cc1cc(O)cc(O)c1C(=O)CCCCCC(C)=O [Compound 3, Dothiorelone P]
- CC50 [1]: > 200 µM

Molecule: Dothiorelone B [Compound 2]
- CC50 [1]: > 200 µM

Molecule: Dothiorelone A [Compound 1]
- CC50 [1]: > 200 µM

Molecule: CCCCCCCC(=O)c1c(O)cc(O)cc1CC(=O)O [Compound 5, Cytosporone A]
- antimicrobial activity [2]: antimicrobial activity
- inhibition for germination and growth of plants [3]: inhibition
- antimicrobial activity [4]: antimicrobial activity
- CC50 [1]: > 200 µM
- IC50 [5]: 29.9 ± 0.5 µM
- antimicrobial activity [6]: antimicrobial activity
- antimicrobial activity [7]: antimicrobial activity

Molecule: Dothiorelone Q [Compound 4]
- inhibition of TFG-β induced activation of MRC-5 cells [8]: inhibition
- CC50 [1]: > 200 µM
- IC50 [5]: 43 ± 9 µM

Molecule: C=C1[C@@H](C)[C@H]2[C@H](Cc3ccccc3)NC(=O)[C@]23[C@H](OC(C)=O)/C=C/[C@](C)(O)C[C@@H](C)C/C=C/[C@H]3[C@@H]1O [Compound 7, Cytochalasin H]
- IC50 [9]: 47.9 ± 6.3 µM
- CC50 [1]: > 200 µM

Molecule: CCCCCCCC(=O)c1c(O)cc(O)cc1CC(=O)OCC [Compound 6, Cytosporone B]
- IC50 ([9]; Trypanosoma cruzi): 36.5 ± 1.9 µM
- antimicrobial activity [2]: antimicrobial activity
- mitochondrial membrane electric potential (ΔΨm) [10]: depolarization of the membrane
- mitochondrial membrane electric potential (ΔΨm) ([10]; listed as Csn-B): depolarization of the mitochondrial membrane potential; also recorded: significant depolarization
- antimicrobial activity [4]: antimicrobial activity
- antibacterial activity [11]: potent antibacterial activity
- CC50 at 48 h [12]: > 200 µM
- IC50 [5, 16]: < 10 µM
- IC50 [5]: 9.1 ± 3.2 µM
- SI (selectivity index) [5]: >22.0
- antimicrobial activity [6]: antimicrobial activity
- action on Nur77 nuclear receptor [13]: agonist
- ATP levels [14]: ATP decrease
- ATP levels ([14]; listed as Csn-B): decrease in the ATP levels; also recorded: significant decrease in ATP levels; also recorded: significant reduction in intracellular ATP levels
- antimicrobial activity [7]: antimicrobial activity

Molecule: O=C(Cn1ccnc1[N+](=O)[O-])NCc1ccccc1 [Benznidazole, reference compound]
- IC50 ([9]; Trypanosoma cruzi): 17.7 ± 1.9 µM
- CC50 at 48 h [12]: 191 ± 13.4 µM
- IC50 [5, 16]: 5 ± 1.5 µM
- SI (selectivity index) [5]: 38.1
- mitochondrial membrane potential [15]: depolarization
- respiratory chain [15]: respiratory chain inhibition
